Experimental data taken from patent publication EP2068894B1, “USE OF CIS-RHENIUM (III) DI[…] FOR POTENTIATING THE A[…] OF PLATINIUM COMPLEXES” (SOCIETE DE CO[…] RECHERCHES THERAPEUTIQUES, priority 2006, dated 2007).

Tests used:
Assay type in all cases: in vivo, Wistar rats
[1] = test system: tumor carcinoma Guerink (T8) cells; test: Tumor growth in rats inoculated with tumor carcinoma Guerink (T8) cells; settings: for Weight of isolated tumors: day 21 after tumor cells inoculation, cisplatin 8 mg/kg i.p. single on day 9, Re2 7µM/kg i.p. in liposome forms every 2 days from day 3 to day 21; for tumor growth / measured tumor volumes: in comparison to control group, volumes assessed from day 7
Procedure: (§1) Wistar rats weighting 100-120 g were inoculated by tumor carcinoma Guerink (T8) cells (Experimental Oncology, 2003, Vol. 25, pp64-68). The cells were taken in the Institute of Oncology and Experimental Pathology by R.E.Kavetskiy (Kiev). The single intraperitoneal administration of Cisplatin at the dose of 8 mg/kg was made on the 9 day after the tumor inoculation according to the method disclosed by Taylor S.K. in Medical Hypothesis 2003; 60; n°1, pp 89-93. The intraperitoneal administration of the Re2 at the dose of 7µM/kg according to the schema of antioxidant therapy [Meerson F.Z. et al. Pat. Physiol. and Exp. Therap.(Rus) 1983;N5:25-9] in liposome forms [Sktemenko et al. Ukr.Biokhim.Journal (Ukr) 2002;74,N°6:38-43] began on the 3 day after the inoculation of the tumor cells and was repeated every 2 days until day 21. Body weights were measured from day 2 after tumor inoculation, the volume of tumors were assessed from the day 7. On the day 21 animals were sacrified under chlorophormium anesthesia and the tumors were isolated and weighted. Concentrations of hemoglobin (Hb) and quantity of red blood cells (RBC) were measured according to the method described by Chevary et al. in Laboratornoe delo (Rus) 1991;N°10:9-13
(§2) Four groups of 15 animals in each were compared: control group; group with introduction of cisplatin; group with introduction of Re2; and group with introduction of cisplatin together with Re2. Wilcoxon non parametric tests were used to compare the tumor volumes according to the absence of treatment and each group of treatment or between 2 treated groups. Growth of the tumors in control group was very rapid and reached […] and occupied approximately 1/3 of the animal weight. Dynamics of tumor growth is represented on the Figure 1.

[2] = Hemoglobin concentration in blood of tumor-bearing rats; settings: for concentration of Hb: blood, day 21 after tumor cells inoculation, cisplatin 8 mg/kg i.p. day 9, Re2 7µM/kg i.p. every 2 days from day 3
Procedure: as §1, §2

RBC = test: Morphological forms of red blood cells in blood of tumor-bearing rats; settings: day 21 after tumor cells inoculation; for Damaged RBC / Discocytes / Echinocytes: morphological forms of RBC in blood
Procedure: as §1, §2

Molecule	Weight of isolated tumors [1] [g]	tumor growth / measured tumor volumes [1]	concentration of Hb [2] [g/L]	hemoglobin, result in words ([2]; in comparison to control group, day 21)	Damaged RBC (RBC) [%]	Discocytes (RBC) [%]	Echinocytes (RBC) [%]	morphological picture of RBC, result in words (RBC)
N.N.[Cl][Pt][Cl] [cisplatin]	9.88 ± 9.90	significant decrease in measured tumor volumes	129.49 ± 12.43	significant increase in hemoglobin	28.65 ± 3.98	46.36 ± 3.18	24.99 ± 3.84	–
cis-[Re2(AdCOO)2Cl4].2CH3CN	38.27 ± 16.77	did not prevent tumor growth but caused a little delay in progression of growth	72.02 ± 11.12	–	21.53 ± 2.34	56.33 ± 4.32	22.14 ± 2.16	supported quantities of discocytes and echinocytes on a rather high level
